Assays:
[1] = Liver microsome metabolic stability test, human; format: in vitro ADME; details: for half-life: 0.5 mg/mL protein, read-out: T½
Experimental: (§1) 1: To the sample wells of T0, T5, T10, T20, T30, T60 and NCF60, 10 µL of the test or reference working solution and 80 µL of microsome working solution (hepatic microsome with a protein concentration of 0.5 mg/mL) were added, and to Blank60 well, only the microsome working solution was added. Then samples of the Blank60, T5, T10, T20, T30 and T60 other than T0 and NCF60 were placed in a 37° C. water bath and pre-incubated for about 10 min.
(§2) 2: To the T0 sample well, 300 µL of stop solution (containing 200 ng/mL tolbutamide and 200 ng/mL labetalol in acetonitrile solution) was added first, followed by 10 µL of NADPH regeneration system working solution.
(§3) 3: After the pre-incubation of Blank60, T5, T10, T20, T30 and T60 incubation plates, 10 µL of NADPH regeneration system working solution was added to each sample well to start the reaction, and 10 µL of 100 mM potassium phosphate buffer was added to the NCF60 sample well.
(§4) 4: After incubation for an appropriate time (such as 5, 10, 20, 30 and 60 min), to each test sample well and control well of the Blank60, T5, T10, T20, T30, T60 and NCF60 plates, 300 µL of stop solution was added to terminate the reaction.
(§5) 5: All sample plates were shaken to mix well and centrifuged at 4000 rpm for 20 min, and 100 µL of the supernatant of the test sample or control sample was taken and diluted with 300 µL of pure water for LC-MS/MS analysis.
(§6) 6: Data analysis: T½ and CLint(mic) (µL/min/mg) values were calculated according to the first-order elimination kinetics. The first-order elimination kinetics equation was: […]

[2] = target: BTK wild-type kinase (Homo sapiens (Human), UniProt Q06187); assay: BTK kinase activity inhibition test in vitro (Caliper EZ Reader); format: biochemical
BTK wild-type kinase, sequence (Q06187 whole entry): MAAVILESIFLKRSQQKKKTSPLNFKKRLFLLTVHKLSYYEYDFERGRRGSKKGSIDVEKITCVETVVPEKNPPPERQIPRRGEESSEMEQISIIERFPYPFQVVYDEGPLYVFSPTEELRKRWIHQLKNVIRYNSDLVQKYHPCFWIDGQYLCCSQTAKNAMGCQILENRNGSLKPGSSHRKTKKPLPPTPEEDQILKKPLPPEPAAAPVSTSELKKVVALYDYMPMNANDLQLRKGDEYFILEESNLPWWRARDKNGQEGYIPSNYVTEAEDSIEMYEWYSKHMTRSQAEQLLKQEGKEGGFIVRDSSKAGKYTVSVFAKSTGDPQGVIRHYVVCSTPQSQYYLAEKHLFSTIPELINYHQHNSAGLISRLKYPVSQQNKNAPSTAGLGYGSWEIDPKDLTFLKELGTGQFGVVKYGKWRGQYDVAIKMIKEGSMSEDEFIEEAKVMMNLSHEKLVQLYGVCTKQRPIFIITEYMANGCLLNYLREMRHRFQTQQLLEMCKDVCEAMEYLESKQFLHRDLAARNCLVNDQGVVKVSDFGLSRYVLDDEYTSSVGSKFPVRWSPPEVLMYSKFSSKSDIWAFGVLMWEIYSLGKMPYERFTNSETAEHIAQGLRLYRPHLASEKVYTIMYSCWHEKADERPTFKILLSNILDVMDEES
Experimental: (§7) In the tests on the activity of inhibiting BTK and HER2 kinase in vitro in the examples of the present disclosure, powder of the compound was dissolved in 100% DMSO to prepare a 10 mM stock solution and stored at-20° C. in the dark. […] In addition, the compounds were subjected to experiments such as liver microsome metabolic stability, rat PK, rat brain penetration rate, and drug efficacy model in the examples of the present disclosure.
(§8) Compound powders were dissolved in 100% DMSO to make 10 mM stock solutions, which were stored at -20° C. in the dark.
(§9) 2: Kinase Reaction Process
(§10) (1) Preparation of 1 × Kinase buffer.
(§11) (5) After centrifugation at 1000 rpm for 30 seconds, the reaction plate was shaken to mix well and incubated at room temperature for 10 min.
(§12) (6) A 5/3-fold final concentration of a mixed solution of ATP and Kinase substrate 2 was prepared with 1 × Kinase buffer.
(§13) (7) 15 µL of the mixed solution of ATP and substrate with 5/3-fold final concentration was added to start the reaction.
(§14) (8) The 384-well plate was centrifuged at 1000 rpm for 30 seconds, shaken to mix well, and incubated at room temperature for 10 min.
(§15) (9) 30 µL of a stop solution was added to stop the kinase reaction, and after centrifugation at 1000 rpm for 30 seconds, the plate was shaken to mix well;
(§16) (10) The conversion rate was read with Caliper EZ Reader.
(§17) where Conversion%_sample indicates the conversion rate reading of the sample; Conversion%_min is the average reading of the negative control wells, representing the conversion rate reading of the wells without enzyme activity; Conversion%_max is the average reading of the ratio of the positive control wells, representing the conversion rate reading of the wells without compound inhibition.
(§18) Dose-Response Curve Fitting
(§19) With the log value of the concentration as the X-axis, and the percentage inhibition rate as the Y-axis, the dose-effect curve was fitted using the log(inhibitor) vs. response-Variable slope of the analysis software GraphPad Prism 5, so as to determine the IC50 value of each compound on the enzyme activity.
(§20) The calculation formula was: […]

[3] = Liver microsome metabolic stability test, rat; format: in vitro ADME; details: for half-life: 0.5 mg/mL protein, read-out: T½
Experimental: as §1, §2, §3, §4, §5, §6

[4] = target: BTK mutation-type C481S kinase (Homo sapiens (Human), UniProt Q06187, C481S); assay: BTK-C481S kinase activity inhibition test in vitro (Caliper EZ Reader); format: biochemical
BTK mutation-type C481S kinase, sequence (Q06187 whole entry C481S): as the sequence (Q06187 whole entry) above, with C481S counted along it
Experimental: as §7, §8, §9, §10, §11, §12, §13, §14, §15, §16, §17, §18, §19, §20

[5] = Pharmacokinetic test, oral, SD rats; format: in vivo; details: oral 10 mg/kg, plasma; for AUC(0-inf) / Cmax / half-life: rat; for Cmax: read-out: Cmax; for half-life: read-out: T½ (converted)
Experimental: Each test compound was administered orally (10 mg/kg, 3 rats in each group) to SD rats for pharmacokinetic study. […] Animals were fasted overnight before oral administration, and fed again after 4 h of administration. […] At each collection time point, 3 whole blood samples were collected at a the collection volume of about 0.2-0.3 mL. […] The collected plasma was stored at -20° C. before analysis. 20 µL of plasma sample was added into a 1.6 mL 96-well deep-well plate, added with 200 µL of working internal standard solution (the same volume of vehicle was added to the blank instead of internal standard), vortexed for 1 min, and centrifuged at 5800 rpm for 10 min. 100 µL of the supernatant was added to a 96-well injection plate for LC-MS/MS analysis.

%Remaining (60 min) [1]	half-life ([1]; liver microsomes)	IC50 [2]	%Remaining (60 min) [3]	half-life ([3]; liver microsomes)	Compound	further results
31.8%	37.5 min	5 to 20 nM	14.6%	21.7 min	Nc1nccn2c(C3CCC(CO)OC3)nc(-c3ccc(Oc4ccccc4)cc3)c12 (stereo not drawn) [Compound 16]	–
–	–	20 to 100 nM	–	–	Nc1cccc(NC(=O)c2ccc(-c3nc([C@@H]4CC[C@@H](CO)OC4)n4ccnc(N)c34)cc2)n1 (single isomer, unassigned) [Compound 2-A-P2]	IC50 [4]: 20 to 100 nM
–	> 145 min	5 to 20 nM	–	143 min	COc1ccccc1C(=O)NCc1ccc(-c2nn(C3CCC(CO)OC3)c3ncnc(N)c23)cc1 (single isomer, unassigned) [Compound 60-A]	microsomal CLint ([1]; liver microsomes): < 9.6 µL/min/mg; microsomal CLint ([3]; liver microsomes): 9.7 µL/min/mg
23.5%	29.4 min	5 to 20 nM	7.9%	16.7 min	Nc1nccn2c(C3CCC(CO)OC3)nc(-c3ccc(Oc4cccc(C(F)(F)F)c4F)cc3)c12 (stereo not drawn) [Compound 19]	–
25.8%	33.3 min	100 to 1000 nM	14.2%	22.3 min	Nc1nccn2c(C34CCC(CO)(CC3)OC4)nc(-c3ccc(C(F)(F)c4ccccc4Cl)cc3)c12 [Compound 155]	–
–	–	20 to 100 nM	–	–	COc1ccccc1C(=O)NCc1ccc(-c2nn(C3CCC(CO)OC3)c3ncnc(N)c23)cc1 (single isomer, unassigned) [Compound 60-B]	Cl [5]: 188.82 mL/min/kg; AUC(0-inf) [5]: 889 ng·h/mL; Cmax [5]: 946 ng/mL; half-life [5]: 173 min
31.7%	37.7 min	5 to 20 nM	8.5%	17 min	Nc1nccn2c(C3CCC(CO)OC3)nc(-c3ccc(Oc4c(F)cccc4F)cc3)c12 (stereo not drawn) [Compound 64]	–
–	–	5 to 20 nM	–	–	COc1cccc(C(=O)c2ccc(-c3nc(C4CCC(CO)OC4)n4ccnc(N)c34)cc2)c1F (stereo not drawn) [Compound 61]	–
–	–	20 to 100 nM	–	–	COc1ccccc1Oc1ccc(-c2nc(C3CCC(CO)OC3)n3ccnc(N)c23)cc1 (stereo not drawn) [Compound 88]	–
2.6%	11.1 min	–	3.0%	11.8 min	COc1cccc(Oc2ccc(-c3nc(C4CCC(CO)OC4)n4c(Cl)cnc(N)c34)cc2)c1F (stereo not drawn) [Compound 12]	–
–	–	20 to 100 nM	–	–	COc1cccc(Oc2ccc(-c3nc(C4COC5C(O)COC45)n4ccnc(N)c34)cc2)c1F (stereo not drawn) [Compound 82]	–

The next lines start with the compound.

Compound	%Remaining (60 min) [1]	half-life ([1]; liver microsomes)	IC50 [2]	%Remaining (60 min) [3]	half-life ([3]; liver microsomes)	further results
Nc1nccn2c(C3CCC(CO)OC3)nc(-c3ccc(Oc4cccc(Cl)c4F)cc3)c12 (stereo not drawn) [Compound 9]	24.5%	28.6 min	–	3.2%	12.2 min	–
Nc1nccn2c(C34CCC(CO)(CC3)OC4)nc(-c3ccc(C(F)(F)c4cccc(Cl)c4F)cc3)c12 [Compound 152]	25.4%	30.2 min	100 to 1000 nM	25.8%	13.5 min	Cl [5]: 272.78 mL/min/kg; AUC(0-inf) [5]: 1330 ng·h/mL; Cmax [5]: 200 ng/mL; half-life [5]: 169 min
COc1ccccc1C(=O)NCc1ccc(-c2nn(C3CCC(CO)OC3)c3ncnc(N)c23)cc1 (stereo not drawn) [Compound 60-A]	109.9%	–	–	69%	–	–
COc1cccc(C(F)(F)c2ccc(-c3nc(C4CCC(CO)OC4)n4ccnc(N)c34)cc2)c1 (stereo not drawn) [Compound 121]	–	–	5 to 20 nM	–	–	IC50 [4]: 5 to 20 nM
Cc1cccc(Oc2ccc(-c3nc(C4CCC(CO)OC4)n4ccnc(N)c34)cc2)c1F (stereo not drawn) [Compound 24]	9.7%	18.5 min	< 5 nM	0.1%	5.4 min	–
C=CC(=O)N1CCC[C@@H](n2nc(-c3ccc(Oc4ccccc4)cc3)c3c(N)ncnc32)C1 [Ibrutinib, reference compound]	–	–	–	–	–	AUC(0-inf) [5]: 362 ng·h/mL; Cmax [5]: 222 ng/mL
COc1cccc(Oc2ccc(-c3nc(C4CCC(CO)OC4)n4ccnc(N)c34)cc2)c1 (stereo not drawn) [Compound 101]	81.1%	> 145 min	< 5 nM	39.5%	46.5 min	Cl [5]: 48.75 mL/min/kg; AUC(0-inf) [5]: 3670 ng·h/mL; Cmax [5]: 1770 ng/mL; half-life [5]: 75 min
Cc1ccnc(NC(=O)c2ccc(-c3nc(C4CCC(CO)OC4)n4ccnc(N)c34)cc2)c1 (stereo not drawn) [Compound 70]	77.7%	105 min	5 to 20 nM	37.3%	45.7 min	–
[2H]C([2H])([2H])Oc1cccc(Oc2ccc(-c3nc(C4CCC(CO)OC4)n4ccnc(N)c34)cc2)c1F (stereo not drawn) [Compound 7]	–	–	< 5 nM	–	–	IC50 [4]: < 5 nM
Nc1nccn2c(C3CCC(CO)OC3)nc(-c3ccc(Oc4ccccc4)cc3F)c12 (stereo not drawn) [Compound 17]	–	–	5 to 20 nM	–	–	IC50 [4]: 5 to 20 nM
Nc1nccn2c(C3CCC(CO)OC3)nc(-c3ccc(C(=O)Nc4ccc(C(F)(F)F)cn4)cc3)c12 (stereo not drawn) [Compound 73]	–	–	100 to 1000 nM	–	–	–
COc1cccc(C(F)(F)c2ccc(-c3nc(C45CCC(CO)(CC4)OC5)n4ccnc(N)c34)cc2)c1 [Compound 132]	–	–	20 to 100 nM	–	–	–
Nc1nccn2c(C3CC[C@H](CO)OC3)nc(-c3ccc(C(=O)Nc4ccccn4)cc3F)c12 (stereo partly drawn) [Compound 1-A]	–	–	5 to 20 nM	–	–	–
CC(O)(c1ccccc1)c1ccc(-c2nc(C3CCC(CO)OC3)n3ccnc(N)c23)cc1 (stereo not drawn) [Compound 27]	–	–	20 to 100 nM	–	–	–
COc1cccc(Oc2ccc(-c3nc(C4CCC(CO)OC4)n4ccnc(N)c34)cc2)c1C(F)(F)F (stereo not drawn) [Compound 119]	–	–	< 5 nM	–	–	Cl [5]: 75.92 mL/min/kg; AUC(0-inf) [5]: 2250 ng·h/mL; Cmax [5]: 663 ng/mL; half-life [5]: 38.4 min
COc1cccc(NC(=O)c2ccc(-c3nc(C4CCC(CO)OC4)n4ccnc(N)c34)cc2)c1F (stereo not drawn) [Compound 79]	–	–	> 1000 nM	–	–	–
COc1cccc(Oc2ccc(-c3nc(C45CCC(CO)(CC4)OC5)n4ccnc(N)c34)cc2)c1C#N [Compound 116]	–	–	< 5 nM	–	–	Cl [5]: 84.73 mL/min/kg; AUC(0-inf) [5]: 2010 ng·h/mL; Cmax [5]: 858 ng/mL; half-life [5]: 81 min
Nc1nccn2c(C34CCC(CO)(CC3)OC4)nc(-c3ccc(C(=O)Nc4cc(C(F)(F)F)ccn4)cc3F)c12 [Compound 117]	–	–	< 5 nM	–	–	–
Nc1nccn2c(C34COC(CO)(C3)C4)nc(-c3ccc(C(=O)Nc4ccccn4)cc3)c12 [Compound 42]	–	–	20 to 100 nM	–	–	–
COc1cccc(Oc2ccc(-c3nc(C4CCC(CO)OC4)n4ccnc(N)c34)cc2)c1C#N (single isomer, unassigned) [Compound 89-P2]	–	–	< 5 nM	–	–	–
COc1cccc(Oc2ccc(-c3nc(C4CCC(C(C)(C)O)OC4)n4ccnc(N)c34)cc2)c1F (stereo not drawn) [Compound 51]	–	–	20 to 100 nM	–	–	–
COc1cccc(Oc2ccc(-c3nc(C45CCC(CO)(CC4)OC5)n4ccnc(N)c34)cc2)c1C(F)(F)F [Compound 112]	–	–	5 to 20 nM	–	–	–
Nc1nccn2c(C3CCC(CO)OC3)nc(-c3ccc(Oc4cccc(C5CC5)c4F)cc3)c12 (stereo not drawn) [Compound 22]	–	–	20 to 100 nM	–	–	–

Source: patent US20230364079A1, “COMPOUND AS BRAIN-PERMEABLE BTK OR HER2 INHIBITOR, PREPARATION METHOD THEREFOR, AND USE THEREOF” (CHENGDU HYPERWAY PHARMACEUTICALS CO., LTD., priority 2020, published 2023)
